Literature values as cited in patent US20050271754A1, “Composition for prevention or treatment of an alcohol hangover” (priority 2004, published 2005).

System: acetaldehyde levels in the blood, liver and brain
Conditions: increases the oxidation cycle of ethanol

N[C@@H](CS)C(=O)O [L-cysteine]
acetaldehyde levels in the blood, liver and brain: lowering acetaldehyde levels
